According to PMC8929364, “Metopimazine is primarily metabolized by a liver amidase in humans” (Pharmacology Research & Perspectives, 2021):

Biological target: T1, rhFMO1 (Homo sapiens, UniProt Q01740)
T1 construct: purchased Corning Inc
T1 sequence (Q01740 1-532): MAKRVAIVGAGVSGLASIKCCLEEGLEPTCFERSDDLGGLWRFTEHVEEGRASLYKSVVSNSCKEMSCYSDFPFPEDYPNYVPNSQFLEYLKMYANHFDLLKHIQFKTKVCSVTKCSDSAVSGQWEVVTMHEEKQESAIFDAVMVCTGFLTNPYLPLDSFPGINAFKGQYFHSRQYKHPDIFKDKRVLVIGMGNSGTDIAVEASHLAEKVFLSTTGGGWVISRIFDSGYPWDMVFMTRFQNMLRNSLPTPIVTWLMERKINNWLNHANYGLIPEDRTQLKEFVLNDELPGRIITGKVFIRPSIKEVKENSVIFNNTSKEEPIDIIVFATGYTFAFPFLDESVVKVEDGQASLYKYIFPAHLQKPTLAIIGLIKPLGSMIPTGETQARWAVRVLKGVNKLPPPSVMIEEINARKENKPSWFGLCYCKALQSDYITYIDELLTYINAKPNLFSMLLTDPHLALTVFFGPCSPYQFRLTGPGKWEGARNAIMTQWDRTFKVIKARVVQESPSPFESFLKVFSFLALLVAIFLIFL
Test: Incubation of MPZ with recombinant FMO: FMO1
Type: in vitro ADME
Settings: 1 µM MPZ, pH 8.4
Experimental: MPZ at 1.0 µM was incubated in triplicate with individual recombinant FMO (Supersomes™ for FMO 1, FMO3, and FMO5). Protein concentrations for all rFMO isoforms were 0.05 mg/ml. A positive control (benzydamine, 100 µM) was incubated for 20 min. The reaction mixture containing MPZ or FMO substrate, KPi buffer (pH 8.4), and FMO Supersomes™ was pre‐incubated at 37°C for 3–5 min. All other procedures were the same as described previously. The negative control reactions were incubated absence of NADPH.

## CS(=O)(=O)c1ccc2c(c1)N(CCCN1CCC(C(N)=O)CC1)c1ccccc1S2 [MPZ, metopimazine]
  metabolism by rhFMO1: did not metabolize MPZ
